Laboratory results from US8557842B2 (priority 2010, dated 2013).
Entries after “also recorded” stand apart in the source; their conditions may differ. Like-named read-outs stand apart in the source and are kept apart here.

Key:
human SERT = molecular target: T1, human SERT (Homo sapiens, UniProt P31645); assay: cell-based
T1 construct: expressed in transfected cells; cells as described by Eshleman et al., J. Pharmacol. Exp. Ther. 1995, 274:276-283

Male C57BL/6 mice = assay: Locomotor ambulatory activity; type: in vivo
Source text: Many, but not all, psychostimulants with potent action at DAT, also stimulate locomotor ambulatory activity in rodents. […] Male C57BL/6 mice were contained in a box equipped with infrared beams, the consecutive interruption of which by horizontal activity by the mouse provided a measure for ambulation.

human NET = molecular target: T2, human NET (Homo sapiens, UniProt P23975); assay: cell-based
T2 construct: expressed in transfected cells; cells as described by Reith et al., J. Neurosci
T2 sequence (P23975 whole entry): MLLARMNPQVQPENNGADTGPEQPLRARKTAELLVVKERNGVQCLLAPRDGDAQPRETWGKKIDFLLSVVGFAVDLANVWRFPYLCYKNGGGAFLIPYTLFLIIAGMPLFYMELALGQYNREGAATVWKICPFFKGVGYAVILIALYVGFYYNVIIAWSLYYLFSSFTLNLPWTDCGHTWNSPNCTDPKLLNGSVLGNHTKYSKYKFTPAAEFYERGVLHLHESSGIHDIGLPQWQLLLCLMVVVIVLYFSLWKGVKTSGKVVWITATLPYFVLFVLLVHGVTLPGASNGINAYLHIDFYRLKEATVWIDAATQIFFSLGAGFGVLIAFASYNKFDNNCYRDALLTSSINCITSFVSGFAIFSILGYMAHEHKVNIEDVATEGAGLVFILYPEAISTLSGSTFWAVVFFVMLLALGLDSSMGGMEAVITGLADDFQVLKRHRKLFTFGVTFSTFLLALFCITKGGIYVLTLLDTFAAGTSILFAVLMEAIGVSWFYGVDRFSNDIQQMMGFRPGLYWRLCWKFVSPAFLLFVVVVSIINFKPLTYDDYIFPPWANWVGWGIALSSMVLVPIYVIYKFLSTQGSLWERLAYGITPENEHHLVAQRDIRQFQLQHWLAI

human DAT = molecular target: T3, human DAT (Homo sapiens, UniProt Q01959); assay: Inhibition of [3H]DA uptake in cells expressing cloned human DAT; type: cell-based
T3 construct: expressed in transfected cells; cells as described by Chen et al., J. Neurochem; 2004, 89:853-864
T3 sequence (Q01959 whole entry): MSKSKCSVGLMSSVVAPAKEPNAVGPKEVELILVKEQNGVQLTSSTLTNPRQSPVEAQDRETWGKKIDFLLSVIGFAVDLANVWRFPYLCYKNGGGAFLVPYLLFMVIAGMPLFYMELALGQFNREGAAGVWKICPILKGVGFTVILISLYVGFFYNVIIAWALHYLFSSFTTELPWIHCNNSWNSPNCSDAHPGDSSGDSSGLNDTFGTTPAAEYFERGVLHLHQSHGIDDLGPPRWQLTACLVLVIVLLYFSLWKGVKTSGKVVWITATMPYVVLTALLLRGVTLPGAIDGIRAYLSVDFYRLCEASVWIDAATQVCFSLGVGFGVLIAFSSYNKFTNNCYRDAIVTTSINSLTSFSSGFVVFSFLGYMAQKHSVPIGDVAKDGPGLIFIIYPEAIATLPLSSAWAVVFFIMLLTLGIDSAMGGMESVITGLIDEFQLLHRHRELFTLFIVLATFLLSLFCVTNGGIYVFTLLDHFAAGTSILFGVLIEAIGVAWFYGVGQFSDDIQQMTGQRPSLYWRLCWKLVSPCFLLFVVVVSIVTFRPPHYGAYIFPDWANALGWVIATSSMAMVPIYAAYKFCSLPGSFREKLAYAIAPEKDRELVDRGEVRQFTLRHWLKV

adult male C57BL/6 mice = assay: Forced swim test model of antidepressant-like activity; type: in vivo; conditions: vs saline
Experimental: Data are mean ±SEM (vertical bar). ***P<0.001, n=7-9 (One-way ANOVA and Bonferroni post-hoc tests).
The Forced Swim Test (FST) is a rodent model often used to evaluate the anti-depressive effect of therapeutics. Rats swim under conditions in which escape is not possible. On the first day, rats are forced to swim for 15 minutes. The animals are observed to initially struggle to escape from the water. They then adopt a posture of immobility making only movements necessary to keep their heads above water. The rats are retested 24 hours later. The immobility increases. Treatment with standard antidepressant drugs within the 24 hours between the first exposure to forced swimming and retesting can block facilitated immobility, an effect which is associated with antidepressant efficacy in humans. See Porsolt et al, (1977) Nature 266:730-732; Detke et al. (1995) Psychopharmacology 121:66-72.
Antidepressant-like activity of compound 11 was tested in the forced swim test model as previously described (Porsolt et al., supra; Castagne et al. (2011) Curr Protoc Neurosci 55: Unit 8.10A). Briefly, adult male C57BL/6 mice (N=7-9/group) were placed into individual glass cylinders containing clean 25° C. (±1° C.) water, 15 cm deep for 15 minutes. Mice were removed, dried and returned to their home cages. A second 6-minute swim test was given 24 hours after the first. Saline (3 ml/kg, i.p.), Compound 11 (30 mg/kg, i.p.) or desipramine (10 mg/kg, i.p.; a well-known antidepressant, used as a positive control) were administered […], 5 hours, and 1 hour before the second swim test (i.e., 30 minutes, 19 hours and 23 hours after the first swim). Test sessions were video recorded. Behavior during the 6-minute swim test was scored from the videotapes. The cumulative amount of time that the mouse was immobile in the water during the last 4 minutes of the test was measured, as was the latency for the mouse to show the first bout of immobility behavior. Immobility was defined as the mouse performing no movements except those necessary to keep the head above the water (e.g., no swimming or climbing behaviors). […] Immobility scores were analyzed by a one-way ANOVA, followed by the Bonferroni post-hoc analysis.

[1] = Brain uptake: brain and plasma levels by mass spectrometry; conditions: for concentration at 5 min / concentration at 30 min: male, CD-1, mouse, intraperitoneal, 30 mg/kg
Experimental: Data shown are mean±SEM (vertical bar).
Brain and plasma levels of 11 were determined by mass spectrometry.

[2] = 25 mg/kg i.p., reported levels, cited from earlier work
[3] = tested at 10 mg/kg and 30 mg/kg

T1 sequence (P31645 whole entry): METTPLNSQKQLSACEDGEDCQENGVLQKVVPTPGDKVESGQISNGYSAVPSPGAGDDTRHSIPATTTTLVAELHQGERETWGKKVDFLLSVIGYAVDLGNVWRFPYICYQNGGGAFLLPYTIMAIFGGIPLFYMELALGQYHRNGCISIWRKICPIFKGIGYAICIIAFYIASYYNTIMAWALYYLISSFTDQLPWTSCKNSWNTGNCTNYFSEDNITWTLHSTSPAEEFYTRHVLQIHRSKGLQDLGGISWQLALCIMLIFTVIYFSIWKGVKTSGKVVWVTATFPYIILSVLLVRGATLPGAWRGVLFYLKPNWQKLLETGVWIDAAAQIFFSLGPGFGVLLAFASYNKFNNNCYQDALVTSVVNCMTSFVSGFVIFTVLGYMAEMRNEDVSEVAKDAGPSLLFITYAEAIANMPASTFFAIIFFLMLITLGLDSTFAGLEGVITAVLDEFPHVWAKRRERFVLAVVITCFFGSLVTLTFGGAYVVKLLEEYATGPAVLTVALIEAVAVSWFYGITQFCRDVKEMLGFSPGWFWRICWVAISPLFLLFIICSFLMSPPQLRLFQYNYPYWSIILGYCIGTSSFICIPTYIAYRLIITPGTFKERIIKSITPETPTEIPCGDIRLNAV

Row | SMILES | Ki (human SERT) [nM] | Locomotor stimulation (Male C57BL/6 mice; [3]) | Ki (human NET) [nM] | Ki (human DAT) [nM] | also measured
1 | CCCCC[C@@]12CC[C@@H](C[C@H](OC(=O)c3ccccc3)[C@@H]1C(=O)OC)N2C [Compound 11c, Methyl (1R,2R,3S,5S)-(+)-1-pentyl-3-(benzoyloxy)-8-methyl-8-azabicyclo[3.2.1]octane-2-carboxylate] | 1890 | locomotor activities below those observed with 10 mg/kg of cocaine | 1600 ± 21 | 1270 | –
2 | CC[C@@]12CC[C@@H](C[C@H](OC(=O)c3ccccc3)[C@@H]1C(=O)OC)N2C [Compound 11b, Methyl (1R,2R,3S,5S)-(−)-1-ethyl-3-(benzoyloxy)-8-methyl-8-azabicyclo[3.2.1]octane-2-carboxylate] | 1110 | locomotor activities below those observed with 10 mg/kg of cocaine | 598 ± 179 | 95.1 ± 17 | –
3 | CNCCCN1c2ccccc2CCc2ccccc21 [desipramine, reference compound] | – | – | – | – | Immobility time (adult male C57BL/6 mice; 10 mg/kg i.p.): decreased immobility time; Latency to first episode of immobility (adult male C57BL/6 mice; 10 mg/kg i.p.): increased latency to first episode of immobility
4 | COC(=O)[C@H]1[C@@H](OC(=O)c2ccccc2)C[C@@H]2CC[C@@]1(c1ccccc1)N2C [Compound 11d, Methyl (1R,2R,3S,5S)-(−)-3-(benzoyloxy)-1-phenyl-8-methyl-8-azabicyclo[3.2.1]octane-2-carboxylate] | 974 ± 308 | locomotor activities below those observed with 10 mg/kg of cocaine | 1980 | 31.9 ± 5.7 | Potency at blocking DAT relative to cocaine (human DAT; versus cocaine): ten-fold more potent than cocaine
5 | COC(=O)C1[C@@H](OC(=O)c2ccccc2)CC2CCC1(C)N2C (stereo partly drawn) [Compound 11, Methyl (1R,2R,3S,5S)-(−)-3-(benzoyloxy)-1,8-dimethyl-8-azabicyclo[3.2.I]octane-2-carboxylate] | 435 ± 77 | – | 488 ± 101 | 168 ± 23 | concentration at 5 min ([1]; brain): 8600 ± 700 ng/mL; concentration at 30 min ([1]; brain): 3800 ± 200 ng/mL; concentration at 5 min ([1]; plasma): 3300 ± 200 ng/mL; concentration at 30 min ([1]; plasma): 1700 ± 300 ng/mL; Brain penetration ([1]; pharmacokinetic assay, compared with cocaine): occupies the brain as readily as cocaine; Locomotor stimulation (Male C57BL/6 mice; 30 mg/kg intraperitoneally): did not stimulate locomotion to levels above those seen with 10 mg/kg of cocaine; Immobility time (adult male C57BL/6 mice; 30 mg/kg i.p., last 4 minutes of the 6-minute swim test): decreased immobility time; also recorded: as effective as the antidepressant desipramine in reducing immobility time; Latency to first episode of immobility (adult male C57BL/6 mice; 30 mg/kg i.p.): increased latency to first episode of immobility; also recorded: significantly increased over saline
6 | COC(=O)[C@H]1[C@@H](OC(=O)c2ccccc2)C[C@@H]2CC[C@H]1N2C [cocaine, methyl-(1R,2R,3S,5S)-3-(benzoyloxy)-8-methyl-8-azabicyclo[3.2.1]octane-2-carboxylate] | – | – | – | – | Brain level ([2]; 5 minutes): 6700 ± 1200 ng/mL; Plasma level ([2]; 5 minutes): 1100 ± 100 ng/mL; Brain level ([2]; 30 minutes): 2300 ± 300 ng/mL; Plasma level ([2]; 30 minutes): 400 ± 50 ng/mL; Locomotor stimulation (Male C57BL/6 mice; 10 mg/kg intraperitoneally): slight elevation above saline; Locomotor stimulation (Male C57BL/6 mice; 30 mg/kg intraperitoneally): pronounced increase
7 | CCC[C@@]12CC[C@@H](C[C@H](OC(=O)c3ccccc3)[C@@H]1C(=O)OC)N2C [Compound 11a, Methyl (1R,2R,3S,5S)-(−)-1-propyl-3-(benzoyloxy)-8-methyl-8-azabicyclo[3.2.1]octane-2-carboxylate] | 2990 | locomotor activities below those observed with 10 mg/kg of cocaine | 796 ± 195 | 871 ± 205 | –
